Structures are written as SMILES. Activity calls are given as the source filed them. The rule behind the calls is not given here.

The test system of one data set is RAW264.7. In words: Inhibition of LPS-induced NO production in mouse RAW264.7 cells by Griess reagent based assay. Type of data set: functional, cell-based.
Conditions: not given
As a reminder, the IC50 is the concentration at which inhibition is half-maximal. With `O=C1c2c(O)cc(O[C@@H]3O[C@H](CO)[C@@H](O)[C@H](O)[C@H]3O)cc2O[C@H](c2ccc(O)c(O)c2)[C@H]1O`, the half-inhibitory concentration (IC50) was 43.8 µM and the inhibition entry was “Dose-dependent effect”.

`O=c1c(O)c(-c2ccc(O)c(O)c2)oc2cc(O)cc(O)c12` [QUERCETIN] showed an IC50 of 22.7 µM. Turning to `O=C1c2c(O)cc(O)cc2O[C@H](c2ccc(O)c(O)c2)[C@H]1O` [(+)-TAXIFOLIN], the 50% inhibitory concentration (IC50) came to 81.6 µM and the inhibition result is “Dose-dependent effect”.

The test system of a further data set is RAW264.7. Briefly: Antiinflammatory activity against mouse RAW264.7 cells assessed as reduction in LPS-induced iNOS protein expression at 10 to 50 uM after 24 hrs by Western blot analysis. Type of data set: functional, cell-based.
Conditions: not given
In general terms: In western blotting, separated proteins are transferred to a membrane and probed.
As to `O=C1c2c(O)cc(O[C@@H]3O[C@H](CO)[C@@H](O)[C@H](O)[C@H]3O)cc2O[C@H](c2ccc(O)c(O)c2)[C@H]1O`, the result was Active.

The next data set deals with RAW264.7. Briefly: Cytotoxicity against mouse RAW264.7 cells assessed as reduction in cell viability at 6.25 to 100 uM after 24 hrs by EZ-Cytox cell viability assay. The class given is cell-based. The note with it: raw264.7, 24 h.
Turning to `COc1cc(/C=C/C(=O)O)cc(OC)c1O[C@@H]1O[C@H](CO)[C@@H](O)[C@H](O)[C@H]1O`, the Activity result is “Non-Toxic”.

For `COc1cc(/C=C/CO)cc(OC)c1O[C@@H]1O[C@H](CO)[C@@H](O)[C@H](O)[C@H]1O` [SYRINGIN], the Activity entry is given as “Non-Toxic”.

In the case of `CC1=CC(=O)CC(C)(C)[C@@H]1/C=C/[C@H](CO)O[C@@H]1O[C@H](CO)[C@@H](O)[C@H](O)[C@H]1O`, the Activity entry is recorded as “Non-Toxic”. Same read-out and setting: to `O=C1c2c(O)cc(O[C@@H]3O[C@H](CO)[C@@H](O)[C@H](O)[C@H]3O)cc2O[C@H](c2ccc(O)c(O)c2)[C@H]1O` belongs “Non-Toxic”. Regarding `COc1cc([C@H]2OC[C@H]3[C@@H]2CO[C@@H]3c2cc(OC)c(O[C@@H]3O[C@H](CO)[C@@H](O)[C@H](O)[C@H]3O)c(OC)c2)cc(OC)c1O`, the Activity entry is “Non-Toxic”. Same read-out and setting: to `CC1=CC(=O)CC(C)(C)[C@@]1(O)/C=C/[C@H](C)O[C@@H]1O[C@H](CO)[C@@H](O)[C@H](O)[C@H]1O` [6S,9S-ROSEOSIDE] belongs “Non-Toxic”. `C[C@@H](/C=C/[C@H]1C(CO)=CC(=O)CC1(C)C)O[C@@H]1O[C@H](CO)[C@@H](O)[C@H](O)[C@H]1O`: the Activity result was “Non-Toxic”. Still for that read-out and setting: the value for `COc1cc(-c2oc3cc(O)cc(O)c3c(=O)c2O[C@@H]2O[C@H](CO)[C@@H](O)[C@H](O)[C@H]2O)ccc1O[C@@H]1O[C@H](CO)[C@@H](O)[C@H](O)[C@H]1O` was “Non-Toxic”. Still for that read-out and setting: the value for `COc1cc(/C=C/C(=O)O[C@@H]2O[C@H](CO)[C@@H](O)[C@H](O)[C@H]2O)ccc1O` was “Non-Toxic”; that for `CC1=CC(=O)CC(C)(C)[C@H]1CC[C@@H](CO)O[C@@H]1O[C@H](CO)[C@@H](O)[C@H](O)[C@H]1O` was “Non-Toxic”; that for `COc1cc(C(C)=O)ccc1O[C@@H]1O[C@H](CO)[C@@H](O)[C@H](O)[C@H]1O` [ANDROSIN] was “Non-Toxic”. Take `O=C1c2c(O)cc(O)cc2O[C@H](c2ccc(O)c(O)c2)[C@H]1O` [(+)-TAXIFOLIN]: the Activity result was “Non-Toxic”. The same measure, in the same setting: to `CC1=CC(=O)CC(C)(C)[C@H]1CC[C@@H](O)CO[C@@H]1O[C@H](CO)[C@@H](O)[C@H](O)[C@H]1O` belongs “Non-Toxic”.

For the molecule `CC1=CC(=O)CC(C)(C)[C@H]1/C=C/[C@@H](CO)O[C@@H]1O[C@H](CO)[C@@H](O)[C@H](O)[C@H]1O`, the Activity result was “Non-Toxic”.

Consider `CC(C)(O)c1ccc(CO[C@@H]2O[C@H](CO)[C@@H](O)[C@H](O)[C@H]2O)cc1`, for which the Activity entry was “Non-Toxic”. The same measure, in the same setting: the value for `COc1cc(-c2oc3cc(O)cc(O)c3c(=O)c2O[C@@H]2O[C@H](CO)[C@@H](O)[C@H](O)[C@H]2O)ccc1O` was “Non-Toxic”; that for `O=C1c2c(O)cc(O)cc2O[C@H](c2ccc(O)cc2)[C@H]1O` [DIHYDROKAEMPFEROL] was “Non-Toxic”. Same read-out and setting: to `CC1=CC(=O)CC(C)(C)[C@H]1CC[C@@H](O)CO` belongs “Non-Toxic”; to `COc1cc(-c2oc3cc(O)cc(O)c3c(=O)c2O[C@@H]2O[C@H](CO[C@@H]3O[C@@H](C)[C@H](O)[C@@H](O)[C@H]3O)[C@@H](O)[C@H](O)[C@H]2O)ccc1O` [NARCISSIN], “Non-Toxic”; to `CC1=CC(=O)CC(C)(C)[C@@]1(O)/C=C/[C@H](CO)O[C@@H]1O[C@H](CO)[C@@H](O)[C@H](O)[C@H]1O`, “Non-Toxic”.

As to `O=C1C[C@@H](c2cc(O)cc(O)c2)Oc2cc(O)cc(O)c21`, the Activity entry is on record as “Non-Toxic”.

Another data set has as its system RAW264.7. In words: Antiinflammatory activity against mouse RAW264.7 cells assessed as reduction in LPS-induced iNOS protein expression at 25 to 100 uM after 24 hrs by Western blot analysis.
Conditions: not given
The class given is functional, cell-based.
`O=C1c2c(O)cc(O)cc2O[C@H](c2ccc(O)c(O)c2)[C@H]1O` [(+)-TAXIFOLIN]: the result was Active.

For the origin of these results see ChEMBL document CHEMBL4613256, “Megastigmane Derivatives from the Cladodes of Opuntia humifusa and Their Nitric Oxide Inhibitory Activities in Macrophages” (J Nat Prod, 2020).
